Measured values: PMC7915902, “Preclinical Evaluation of [^18F]FACH in Healthy Mice and Piglets: An ^18F-Labeled Ligand for Imaging of Monocarboxylate Transporters with PET” (International Journal of Molecular Sciences, 2021)

Experiments:
MCTs [1] = test: PET displacement study in mice; type: in vivo, mouse; conditions: mice
Description: The biodistribution of [^18F]FACH in mice was assessed by small animal PET (Nanoscan, Mediso, Budapest, Hungary) with dynamic 60 min emission recordings, followed by T1 weighted GRE MR (TR = 15.0 ms, TE = 2.4 ms, FA = 25°) imaging for anatomical correlations and attenuation correction. The mice (n = 20) weighing 32.2 ± 2.9 g were anaesthetised with 2% isoflurane in 60% oxygen, and placed on a thermostatically heated animal bed. The animals then received i.v. injections of 0.9% saline (control), reference compound (10 mg/kg), or α-CCA-Na (25 mg/kg) ten min prior or 20 min after (displacement studies) [^18F]FACH administration (2.3–8.6 MBq, 0.5–11.2 nmol/kg). List mode PET data were binned as a series of attenuation-corrected sinogram frames (12 × 10 s, 6 × 30 s, 5 × 60 s and 10 × 300 s) and were reconstructed by Ordered Subset Expectation Maximization (OSEM3D) with four iterations, six subsets and a voxel size of 0.4 mm³ (Nucline v2.01, Mediso).
The analysis of reconstructed datasets was performed with PMOD software (v4.103, PMOD Technologies LLC, Zurich, Switzerland).

MCTs [2] = test: Autoradiographic saturation binding (homologous displacement) in mouse kidney cryosections
Description: Cryosections from the mouse kidney (10 µm) were cut on a microtome (Microm HM560, Thermo Scientific Microm, Fisher Scientific GmbH, Schwerte, Germany), mounted on glass slides (SuperFrost, Thermo Scientific Menzel, Fisher Scientific GmbH), dried for two hours at room temperature, and stored at −25 °C. Before the binding experiment, the tissue slices were dried under a stream of cold air, pre-incubated with PBS (pH 7.4) for 15 min at room temperature and dried again before incubation with PBS containing [^18F]FACH (1.2 nM) without (total binding) and with different concentrations of FACH-Na (10 µM–0.1 nM; homologous competition) for 60 min. Specific binding to MCTs of [^18F]FACH in cryosections of mouse kidney was determined after co-incubation of 1 nM [^18F]FACH with vehicle or 300 nM α-CCa-Na or 300 nM reference compound (homologous competition).
The incubation was terminated by washing with ice-cold buffer (50 mM TRIS-HCl, pH 7.4) twice for two minutes followed by dipping in ice-cold demineralized water for 5 s and drying under a stream of cold air. The dried sections along with activity standards (1 µL aliquots of different dilutions of the incubation solution dried on microscopic slides) were exposed to phosphor imaging plates (FujiFilm Co., Tokyo, Japan) transferred after 120 min to a phosphor imager (HD-CR 35 Bio; Dürr NDT GmbH & Co. KG, Bietigheim-Bissingen, Germany). Regions of interest (ROIs) were drawn manually or automatically on the tissue slices or standard spots, and the pixelwise results converted to Bq/mg wet weight. Non-linear regression analysis was performed with GraphPad Prism (v.3.0 GraphPad Software, San Diego, CA, USA). KD and Bmax values were calculated by the simplified Cheng and Prusoff equation (http://www3.uah.es/farmamol/Public/GraphPad/radiolig.htm, accessed on 5 February 2021):(1) KD=Ki=IC50−Radioligand (M) (2) Bmax=Top−Bottom/Radioligand (M)/(KD+Radioligand (M))

MCT1 = target: T1, MCT1 (Mus musculus, UniProt P53986); test: MCT1 specific cell uptake of [18F]FACH in 4T1 cells; type: cell-based; conditions: control (vehicle), 30 min incubation, 37 °C, pH 7.4
T1 construct: endogenous in cells; host or cells: 4T1 cells (murine triple negative breast cancer), a gift from István Krizbai's group
T1 sequence (P53986 1-493): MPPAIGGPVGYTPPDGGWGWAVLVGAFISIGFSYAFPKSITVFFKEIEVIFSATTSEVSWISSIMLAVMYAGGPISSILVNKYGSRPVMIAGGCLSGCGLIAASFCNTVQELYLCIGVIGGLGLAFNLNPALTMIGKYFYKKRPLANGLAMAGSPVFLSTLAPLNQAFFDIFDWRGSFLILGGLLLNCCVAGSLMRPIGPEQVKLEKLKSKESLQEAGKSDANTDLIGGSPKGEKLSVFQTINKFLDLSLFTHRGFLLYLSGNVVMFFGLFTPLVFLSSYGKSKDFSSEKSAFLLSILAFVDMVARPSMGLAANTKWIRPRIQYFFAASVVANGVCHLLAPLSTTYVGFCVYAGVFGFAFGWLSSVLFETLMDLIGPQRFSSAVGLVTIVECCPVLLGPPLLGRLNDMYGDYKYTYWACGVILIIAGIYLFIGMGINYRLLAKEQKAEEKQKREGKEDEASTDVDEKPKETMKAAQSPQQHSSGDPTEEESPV
T1 sequence (P18572 140-389 partner limits assumed): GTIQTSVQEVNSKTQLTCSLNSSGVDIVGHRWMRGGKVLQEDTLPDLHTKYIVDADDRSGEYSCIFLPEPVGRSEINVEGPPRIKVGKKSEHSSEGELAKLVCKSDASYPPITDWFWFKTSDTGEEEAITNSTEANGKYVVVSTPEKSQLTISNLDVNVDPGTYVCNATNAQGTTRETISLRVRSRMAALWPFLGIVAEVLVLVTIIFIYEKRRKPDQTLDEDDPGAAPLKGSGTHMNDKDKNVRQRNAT
Description: Afterwards, the cell culture media was replaced with 500 µL RPMI 1640 supplemented with 20 mM HEPES adjusted to pH 7.4 without FCS and incubated for 16 h at 37 °C and 5% CO2. […] After a 30 min incubation, cells were collected on ice and washed three times with phosphate buffer saline and subsequently dispersed in 500 µL 0.1 N NaOH at room temperature for 10 min. The activity of 100 µL cell solution was measured in a gamma counter and normalized to initial dose. Protein content of 10 µL portions of cell solution was measured with a BCA Kit (Pierce, Thermo Fisher Scientific GmbH) relative to a BSA standard curve, and binding was normalized to units of %ID/ mg protein.

[3] = parameters: method as in PMID 32357571; conditions: from dosimetry studies in piglets; cited from earlier work

kidney cortex SUV (MCTs [1]; before injection of α-CCA-Na): 3.50 ± 0.42
blood SUV (MCTs [1]; pre-injection of α-CCA-Na): 0.74 ± 0.23
Kd (MCTs [2]; mouse kidney cortex (Co) cryosections): 118 ± 12 nM
Kd (MCTs [2]; mouse kidney inner medulla (IM) cryosections): 265 nM
Kd (MCTs [2]; mouse kidney outer medulla (OM) cryosections): 212 nM
cell-associated radioactivity (MCT1): 4.7 %ID/mg protein
Compound: CCCN(CCC[18F])c1ccc(/C=C(\C#N)C(=O)O)c(OC)c1 [[^18F]FACH, (E)-2-cyano-3-{4-[(3-[^18F]fluoropropyl)(propyl)amino]-2-methoxyphenyl}acrylic acid]
predicted effective radiation dose for humans [3]: about 2 mSv/100 MBq
